Reference: patent US9403823B2, “Protein kinase inhibitors” (ORIBASE PHARMA, priority 2012, dated 2016)
Read-outs that look alike come from different tables or passages of the source. Marks after values point to notes of the source that are not given here.

Experiments:
HUVEC = test: In vitro cell proliferation assay (MTT), HUVEC; assay type: cell-based; conditions: Homo sapiens, 72 h, read-out: EC50, anti-proliferative activity
Outline: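 HUVEC cells were plated at 1×10^4 cells per well in 96-well plates and exposed in duplicate to increasing compound concentrations from 10 nM to 3 μM for 72 hr. Proliferation was then quantified with MTT (3[4,5-dimethylthiazol-2-yl]-2,5-diphenyltetrazolium bromide) to determine anti-proliferative activity.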

FGFR2 = biological target: T1, FGFR2 (Homo sapiens, UniProt P21802); test: In vitro kinase assay (Z'-LYTE), FGFR2; assay type: biochemical; conditions: read-out: % of inhibition of the kinase compared to the control
T1 construct: purchased Invitrogen
T1 sequence (P21802 22-821): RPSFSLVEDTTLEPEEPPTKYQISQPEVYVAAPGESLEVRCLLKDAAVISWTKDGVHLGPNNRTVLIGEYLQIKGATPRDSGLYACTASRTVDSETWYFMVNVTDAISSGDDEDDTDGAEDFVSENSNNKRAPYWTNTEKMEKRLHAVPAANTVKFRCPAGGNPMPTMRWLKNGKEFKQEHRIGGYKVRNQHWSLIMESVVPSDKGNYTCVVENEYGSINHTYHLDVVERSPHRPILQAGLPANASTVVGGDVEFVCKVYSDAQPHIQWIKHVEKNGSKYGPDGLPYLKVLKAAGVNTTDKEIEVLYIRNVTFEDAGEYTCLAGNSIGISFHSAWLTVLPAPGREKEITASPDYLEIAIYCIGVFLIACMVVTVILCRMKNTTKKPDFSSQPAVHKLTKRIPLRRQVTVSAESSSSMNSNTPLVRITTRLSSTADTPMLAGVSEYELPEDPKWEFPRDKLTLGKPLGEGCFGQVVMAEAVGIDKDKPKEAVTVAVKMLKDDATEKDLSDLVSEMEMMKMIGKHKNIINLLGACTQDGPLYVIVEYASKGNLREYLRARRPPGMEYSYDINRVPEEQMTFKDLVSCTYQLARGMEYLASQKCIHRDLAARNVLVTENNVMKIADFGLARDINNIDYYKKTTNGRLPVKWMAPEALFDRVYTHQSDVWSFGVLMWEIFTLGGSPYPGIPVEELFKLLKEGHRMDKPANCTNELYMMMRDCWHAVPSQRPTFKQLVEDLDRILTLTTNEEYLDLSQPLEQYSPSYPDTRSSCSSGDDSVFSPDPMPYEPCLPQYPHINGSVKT
Outline: (§1)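 Peptide/kinase mix and ATP (at apparent Km) were combined in kinase buffer with compound at 100 nM, or 10 μM against ABL and its T315I mutant. Non-phosphorylated peptide was then proteolytically cleaved, and donor-to-acceptor emission ratio gave the extent of phosphorylation.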

Caki-2 = test: In vitro cell proliferation assay (MTT), Caki-2; assay type: cell-based; conditions: Homo sapiens, CAKI-2, 72 h; read-out: EC50, anti-proliferative activity
Protocol: (§2) 2) In Vitro Cell Proliferation Assays (Table 22 to Table 35)
(§3) Cancer cell lines (5×10^3 cells per well) or HUVEC (1×10^4 cells per well) or HRMEC (1×10^4 cells per well) were distributed in 96-well plates and incubating in duplicate with escalating concentrations (10 nM to 3 μM) of compounds for 72 hr. Cell proliferation was measured using MTT (3[4,5-dimethylthiazol-2-yl]-2,5-diphenyltetrazolium bromide).

HuH7 cell line = test: In vitro cell proliferation assay (MTT), HuH7; assay type: cell-based; conditions: Homo sapiens, Huh-7, 72 h; read-out: EC50, anti-proliferative activity
Protocol: as §2, §3

PC3 cell line = test: In vitro cell proliferation assay (MTT), PC3; assay type: cell-based; conditions: Homo sapiens, PC-3, 72 h; read-out: EC50, anti-proliferative activity
Protocol: as §2, §3

H1975 cell line = test: In vitro cell proliferation assay (MTT), H1975; assay type: cell-based; conditions: Homo sapiens, read-out: EC50, anti-proliferative activity
Protocol: as §2, §3

A549 cell line = test: In vitro cell proliferation assay (MTT), A549; assay type: cell-based; conditions: Homo sapiens, A549, 72 h; read-out: EC50, anti-proliferative activity
Protocol: as §2, §3

MDA-MB-231 cell line = test: In vitro cell proliferation assay (MTT), MDA-MB-231; assay type: cell-based; conditions: Homo sapiens, MDA-MB-231, 72 h; read-out: EC50, anti-proliferative activity
Protocol: as §2, §3

HepG2 cells = test: Human hepatocellular carcinoma mouse model (HepG2 xenograft); assay type: in vivo, athymic nude male mice; conditions: 20 mg/kg q.d. per os for 15 consecutive days
Protocol: 3) In Vivo Studies (Table 36)
Human hepatocellular carcinoma mouse model was prepared by subcutaneously implanting HepG2 cells (1×10^7 cell/mL in sterile PBS), into the right flank of athymic nude male mice (HSD, 6-7 weeks old). When the tumor volume reached approximately 200 mm^3, mice were assigned randomly to either vehicle alone or ORB compounds treatment groups (six mice per group). Mice were treated with either vehicle (PEG400) or OR0720, OR0721, OR0811 (20 mg/kg q.d.; per os for 15 consecutive days).
Tumor volumes in mm^3 were determined three times a week with a digital caliper and calculated using the following formula: Tumor Volume (mm)=length (mm)×width (mm)×width (mm)×½. Body weight was measured three times a week, and mice were observed daily for monitoring signs of stress to detect possible toxicities. One-way ANOVA was used for statistical comparisons. Data were analyzed with Prism 5.0 b (GraphPad Software) by one-way ANOVA with Bonferroni post hoc. Tumor Growth Inhibition (TGI) is calculated as the percent decrease of tumor growth at the end of the study in the ORB compounds treatment groups in comparison to the vehicle alone treatment group.

HT29 cell line = test: In vitro cell proliferation assay (MTT), HT29; assay type: cell-based; conditions: Homo sapiens, HT-29, 72 h; read-out: EC50, anti-proliferative activity
Protocol: as §2, §3

HRMEC cells = test: In vitro cell proliferation assay (MTT), HRMEC; assay type: cell-based; conditions: 72 h, read-out: EC50, anti-proliferative activity
Protocol: as §2, §3

KDR (VEGFR2) = biological target: T2, KDR (VEGFR2) (Homo sapiens, UniProt P35968); test: In vitro kinase assay (Z'-LYTE), KDR (VEGFR2); assay type: biochemical; conditions: read-out: % of inhibition of the kinase compared to the control
T2 construct: purchased Invitrogen
T2 sequence (P35968 20-1356): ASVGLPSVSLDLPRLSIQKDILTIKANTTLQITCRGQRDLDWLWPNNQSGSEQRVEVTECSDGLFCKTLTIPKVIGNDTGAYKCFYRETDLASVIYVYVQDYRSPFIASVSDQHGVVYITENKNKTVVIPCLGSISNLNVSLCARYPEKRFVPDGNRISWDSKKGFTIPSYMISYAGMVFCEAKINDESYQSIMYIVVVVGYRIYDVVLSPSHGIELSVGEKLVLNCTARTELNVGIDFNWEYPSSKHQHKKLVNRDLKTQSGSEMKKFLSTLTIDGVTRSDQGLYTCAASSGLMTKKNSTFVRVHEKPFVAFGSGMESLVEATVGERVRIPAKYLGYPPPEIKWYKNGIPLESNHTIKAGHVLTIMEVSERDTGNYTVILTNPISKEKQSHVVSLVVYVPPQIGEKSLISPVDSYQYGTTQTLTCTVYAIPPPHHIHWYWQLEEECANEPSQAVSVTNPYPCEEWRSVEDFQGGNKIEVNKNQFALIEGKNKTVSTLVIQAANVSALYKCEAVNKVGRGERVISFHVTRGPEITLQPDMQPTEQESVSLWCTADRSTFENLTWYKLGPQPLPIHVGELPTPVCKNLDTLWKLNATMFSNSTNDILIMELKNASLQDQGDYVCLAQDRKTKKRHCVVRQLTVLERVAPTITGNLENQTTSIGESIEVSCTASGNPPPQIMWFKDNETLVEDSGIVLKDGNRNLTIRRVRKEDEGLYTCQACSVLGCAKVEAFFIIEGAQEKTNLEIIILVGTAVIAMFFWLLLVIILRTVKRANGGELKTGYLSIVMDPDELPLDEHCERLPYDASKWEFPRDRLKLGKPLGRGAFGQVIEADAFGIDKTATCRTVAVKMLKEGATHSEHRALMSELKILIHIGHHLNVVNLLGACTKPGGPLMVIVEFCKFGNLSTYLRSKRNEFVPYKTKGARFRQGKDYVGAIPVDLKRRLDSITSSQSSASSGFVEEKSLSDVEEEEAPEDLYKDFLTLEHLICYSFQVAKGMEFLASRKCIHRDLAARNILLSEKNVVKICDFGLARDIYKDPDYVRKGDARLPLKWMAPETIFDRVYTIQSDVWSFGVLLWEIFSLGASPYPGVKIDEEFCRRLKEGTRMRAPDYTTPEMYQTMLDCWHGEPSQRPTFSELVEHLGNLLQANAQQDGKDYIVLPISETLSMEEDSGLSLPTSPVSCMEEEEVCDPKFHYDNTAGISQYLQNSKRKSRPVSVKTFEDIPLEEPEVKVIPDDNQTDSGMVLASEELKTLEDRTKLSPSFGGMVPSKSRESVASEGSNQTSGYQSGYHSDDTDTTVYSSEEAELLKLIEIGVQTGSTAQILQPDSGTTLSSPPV
Outline: as §1

BxPC-3 cell line = test: In vitro cell proliferation assay (MTT), BxPC-3; assay type: cell-based; conditions: Homo sapiens, BXPC-3, 72 h; read-out: EC50, anti-proliferative activity
Protocol: as §2, §3

BRAF = biological target: T3, BRAF (Homo sapiens, UniProt P15056); test: In vitro kinase assay (Z'-LYTE), BRAF; assay type: biochemical; conditions: read-out: % of inhibition of the kinase compared to the control
T3 construct: purchased Invitrogen
T3 sequence (P15056 whole entry): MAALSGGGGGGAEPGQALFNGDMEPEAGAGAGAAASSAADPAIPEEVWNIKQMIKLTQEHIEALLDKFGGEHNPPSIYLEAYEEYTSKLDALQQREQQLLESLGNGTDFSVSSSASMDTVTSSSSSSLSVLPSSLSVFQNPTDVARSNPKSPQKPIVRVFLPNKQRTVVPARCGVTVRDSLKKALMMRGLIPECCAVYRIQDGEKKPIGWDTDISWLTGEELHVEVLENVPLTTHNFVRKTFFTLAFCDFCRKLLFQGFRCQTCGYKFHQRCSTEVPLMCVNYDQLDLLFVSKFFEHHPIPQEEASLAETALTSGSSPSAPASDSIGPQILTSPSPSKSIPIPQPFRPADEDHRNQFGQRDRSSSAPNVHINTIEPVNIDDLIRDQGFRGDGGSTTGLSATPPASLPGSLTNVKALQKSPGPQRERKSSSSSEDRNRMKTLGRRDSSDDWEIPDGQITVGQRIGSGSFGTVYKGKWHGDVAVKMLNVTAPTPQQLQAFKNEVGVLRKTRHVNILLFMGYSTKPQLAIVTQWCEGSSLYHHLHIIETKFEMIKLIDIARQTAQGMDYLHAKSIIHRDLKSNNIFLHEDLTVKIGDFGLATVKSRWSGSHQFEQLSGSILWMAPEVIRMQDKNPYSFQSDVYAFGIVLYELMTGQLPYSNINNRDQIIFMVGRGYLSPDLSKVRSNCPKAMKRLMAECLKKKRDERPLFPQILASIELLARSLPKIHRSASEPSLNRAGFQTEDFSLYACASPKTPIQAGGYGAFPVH
Outline: as §1

EGFR (ErbB1) = biological target: T4, EGFR (ErbB1) (Homo sapiens, UniProt P00533); test: In vitro kinase assay (Z'-LYTE), EGFR (ErbB1); assay type: biochemical; conditions: read-out: % of inhibition of the kinase compared to the control
T4 construct: purchased Invitrogen
T4 sequence (P00533 25-1210): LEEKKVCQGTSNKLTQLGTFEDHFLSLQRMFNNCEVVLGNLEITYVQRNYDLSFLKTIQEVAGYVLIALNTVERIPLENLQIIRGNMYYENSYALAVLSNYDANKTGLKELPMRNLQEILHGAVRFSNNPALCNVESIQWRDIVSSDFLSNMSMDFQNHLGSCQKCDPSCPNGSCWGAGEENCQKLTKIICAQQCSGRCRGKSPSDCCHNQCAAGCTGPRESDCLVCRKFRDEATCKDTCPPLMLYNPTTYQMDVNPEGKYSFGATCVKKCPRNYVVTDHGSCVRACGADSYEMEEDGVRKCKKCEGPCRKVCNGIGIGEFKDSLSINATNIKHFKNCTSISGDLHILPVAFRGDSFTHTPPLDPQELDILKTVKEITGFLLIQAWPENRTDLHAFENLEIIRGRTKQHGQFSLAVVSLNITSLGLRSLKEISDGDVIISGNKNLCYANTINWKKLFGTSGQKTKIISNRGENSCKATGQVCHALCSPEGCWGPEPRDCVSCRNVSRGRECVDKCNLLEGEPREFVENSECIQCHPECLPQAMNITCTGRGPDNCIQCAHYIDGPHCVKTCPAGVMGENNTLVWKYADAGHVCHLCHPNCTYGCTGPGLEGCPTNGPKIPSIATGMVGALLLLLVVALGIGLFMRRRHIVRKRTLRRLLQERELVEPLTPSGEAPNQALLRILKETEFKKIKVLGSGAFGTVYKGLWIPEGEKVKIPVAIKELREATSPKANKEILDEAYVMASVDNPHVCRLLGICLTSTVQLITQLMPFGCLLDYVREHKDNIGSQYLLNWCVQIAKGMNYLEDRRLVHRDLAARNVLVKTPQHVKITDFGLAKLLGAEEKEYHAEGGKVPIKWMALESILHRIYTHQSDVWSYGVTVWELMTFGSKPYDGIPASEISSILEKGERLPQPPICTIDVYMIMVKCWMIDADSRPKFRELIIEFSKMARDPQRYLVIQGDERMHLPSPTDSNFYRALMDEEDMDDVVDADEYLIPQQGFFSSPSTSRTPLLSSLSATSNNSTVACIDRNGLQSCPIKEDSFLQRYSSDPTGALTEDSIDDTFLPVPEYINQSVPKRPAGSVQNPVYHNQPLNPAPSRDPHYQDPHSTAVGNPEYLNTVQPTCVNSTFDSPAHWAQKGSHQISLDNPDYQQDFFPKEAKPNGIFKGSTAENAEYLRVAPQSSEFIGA
Outline: as §1

HepG2 cell line = test: In vitro cell proliferation assay (MTT), HepG2; assay type: cell-based; conditions: Homo sapiens, HepG2, 72 h; read-out: EC50, anti-proliferative activity
Outline: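 Seed cells (HRMEC 1×10^4/well; cancer lines 5×10^3/well), add compounds at escalating concentrations from 10 nM to 3 μM in duplicate, incubate 72 hr, then measure proliferation with MTT.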

HuH6 Clone 5 cell line = test: In vitro cell proliferation assay (MTT), HuH6 Clone 5; assay type: cell-based; conditions: HUH-6-clone5, 72 h; read-out: EC50, anti-proliferative activity
Protocol: as §2, §3

HeLa cell line = test: In vitro cell proliferation assay (MTT), HeLa; assay type: cell-based; conditions: Homo sapiens, 72 h, read-out: EC50, anti-proliferative activity
Protocol: as §2, §3

EGFR (ErbB1) T790M L858R = biological target: T5, EGFR (ErbB1) T790M L858R (Homo sapiens, UniProt P00533, L858R/T790M); test: In vitro kinase assay (Z'-LYTE), EGFR (ErbB1) T790M L858R; assay type: biochemical; conditions: read-out: % of inhibition of the kinase compared to the control
T5 construct: purchased Invitrogen
Protocol: 1) In Vitro Kinase Assays (Table 10 to Table 21)
The inhibitory activity of the compounds on several kinases including BRAF, EGFR (ErbB1), EGFR (ErbB1) T790M L858R, FGFR2, KDR (VEGFR2), PDGFRA (PDGFR alpha), SRC and other was evaluated by Invitrogen using the Z′-LYTE® technology. Briefly, the Z′-LYTE® biochemical assay employs a fluorescence-based, coupled-enzyme format and is based on the differential sensitivity of phosphorylated and non-phosphorylated peptides to proteolytic cleavage. The peptide substrate is labeled with two fluorophores—one at each end—that make up a FRET pair. A ratiometric method, which calculates the ratio (the Emission Ratio) of donor emission to acceptor emission after excitation of the donor fluorophore at 400 nm, is used to quantitate reaction progress.
The compounds are screened in 1% DMSO (final) in the well. For 10 point titrations, 3-fold serial dilutions are conducted from the starting concentration. All Peptide/Kinase Mixtures are diluted to a 2× working concentration in the appropriate Kinase Buffer. All ATP Solutions are diluted to a 4× working concentration in Kinase Buffer (50 mM HEPES pH 7.5, 0.01% BRIJ-35, 10 mM MgCl2, 1 mM EGTA). ATP Km apparent is previously determined using a Z′-LYTE® assay.
Each compound was incubated at a concentration of 100 nM (excepted to test the activity against ABL and ABL T315I for which the compounds were incubated at a concentration of 10 μM) and the tables 10 to 21 summarize the results obtained showing the inhibitory power of a compound.

SRC = biological target: T6, SRC (Homo sapiens, UniProt P12931); test: In vitro kinase assay (Z'-LYTE), SRC; assay type: biochemical; conditions: read-out: % of inhibition of the kinase compared to the control
T6 construct: purchased Invitrogen
T6 sequence (P12931 whole entry): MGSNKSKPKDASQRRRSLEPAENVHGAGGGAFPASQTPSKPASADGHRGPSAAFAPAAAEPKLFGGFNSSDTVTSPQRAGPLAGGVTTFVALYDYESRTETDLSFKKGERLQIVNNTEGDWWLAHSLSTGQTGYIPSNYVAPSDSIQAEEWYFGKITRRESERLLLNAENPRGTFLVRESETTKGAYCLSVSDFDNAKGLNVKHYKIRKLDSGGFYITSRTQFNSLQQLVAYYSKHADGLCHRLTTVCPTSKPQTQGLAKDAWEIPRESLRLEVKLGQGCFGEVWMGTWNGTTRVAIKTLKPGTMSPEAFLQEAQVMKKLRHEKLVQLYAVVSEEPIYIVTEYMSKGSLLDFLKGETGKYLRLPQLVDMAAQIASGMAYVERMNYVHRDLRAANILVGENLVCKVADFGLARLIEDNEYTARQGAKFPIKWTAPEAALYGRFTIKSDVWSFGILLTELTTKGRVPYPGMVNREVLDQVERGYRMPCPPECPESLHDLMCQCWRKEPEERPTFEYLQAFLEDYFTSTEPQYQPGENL
Outline: as §1

HuCCT1 cell line = test: In vitro cell proliferation assay (MTT), HuCCT1; assay type: cell-based; conditions: Homo sapiens, HuCCT-1, 72 h; read-out: EC50, anti-proliferative activity
Protocol: as §2, §3

PDGFRA (PDGFR alpha) = biological target: T7, PDGFRA (PDGFR alpha) (Homo sapiens, UniProt P16234); test: In vitro kinase assay (Z'-LYTE), PDGFRA; assay type: biochemical; conditions: read-out: % of inhibition of the kinase compared to the control
T7 construct: purchased Invitrogen
Outline: as §1

inhibition at 0.1 µM (FGFR2) | EC50 (HuH7 cell line) | EC50 (A549 cell line) | EC50 (MDA-MB-231 cell line) | EC50 (HT29 cell line) | inhibition at 0.1 µM (KDR (VEGFR2)) | EC50 (BxPC-3 cell line) | inhibition at 0.1 µM (BRAF) | inhibition at 0.1 µM (EGFR (ErbB1)) | EC50 (HepG2 cell line) | SMILES | EC50 (HUVEC) | EC50 (HRMEC cells) | also measured
≥ 50% | 100 to 1000 nM | 100 to 1000 nM | 100 to 1000 nM | 100 to 1000 nM | ≥ 50% | 100 to 1000 nM | ≥ 50% | ≥ 50% | ≤ 100 nM | CC(=O)c1cc2cc(NCc3cc(NC(=O)c4ccc(CN5CC[C@H](N(C)C)C5)c(C(F)(F)F)c4)ccc3C)cnc2[nH]1 [OR0811, N-{3-[(2-Acetyl-1H-pyrrolo[2,3-b]pyridin-5-ylamino)-methyl]-4-methyl-phenyl}-4-((S)-3-dimethylamino-pyrrolidin-1-ylmethyl)-3-trifluoromethyl-benzamide] | 100 to 1000 nM | 100 to 1000 nM | EC50 (Caki-2): 100 to 1000 nM; EC50 (PC3 cell line): 100 to 1000 nM; EC50 (H1975 cell line; NCI-H1975, H1975, 72 hr, MTT): ≥ 1000 nM; tumor growth in xenografted mice bearing human hepatocellular carcinoma tumors (HepG2 cells): significantly induced a decrease of tumor growth; Anti-tumor activity (Tumor Growth Inhibition—TGI) (HepG2 cells; mice, HepG2 xenograft, end of study vs vehicle): 75%*
≥ 50% | 100 to 1000 nM | 100 to 1000 nM | ≤ 100 nM | 100 to 1000 nM | ≥ 50% | ≤ 100 nM | ≥ 50% | ≥ 50% | 100 to 1000 nM | CC(=O)c1cc2cc(NCc3cc(NC(=O)c4ccc(CN5CCC(N(C)C)C5)c(C(F)(F)F)c4)ccc3C)cnc2[nH]1 (stereo not drawn) [OR0718, N-{3-[(2-Acetyl-1H-pyrrolo[2,3-b]pyridin-5-ylamino)-methyl]-4-methyl-phenyl}-4-(3-dimethylamino-pyrrolidin-1-ylmethyl)-3-trifluoromethyl-benzamide] | ≤ 100 nM | 100 to 1000 nM | EC50 (HuH6 Clone 5 cell line): 100 to 1000 nM; EC50 (HeLa cell line): 100 to 1000 nM; inhibition at 0.1 µM (EGFR (ErbB1) T790M L858R): ≥ 50%; EC50 (H1975 cell line; NCI-H1975, 72 h): 100 to 1000 nM; inhibition at 0.1 µM (SRC): ≥ 50%; EC50 (HuCCT1 cell line): 100 to 1000 nM; inhibition at 0.1 µM (PDGFRA (PDGFR alpha)): ≥ 50%
